The values that follow come from PMC10721786, “Development of a potent benzonitrile-based inhibitor of glutaminyl-peptide cyclotransferase-like protein (QPCTL) with antitumor efficacy” (Signal Transduction and Targeted Therapy, 2023).

Data set [1] concerns B16F10 cells. As to the kind of experiment: Tumor challenge: B16F10 tumors in C57BL/6 mice. As to conditions: B16F10 in C57BL/6 mice, anti-CD3 antibody 200 µg/mouse, QP5038 25 mg/kg daily. In kind it is in vivo. Here is the method:
C57BL/6 mice were obtained from Shanghai Slaccas Laboratory Animal Co., Ltd.. Male mice were implanted subcutaneously with 1 x 10^^6 B16F10 cells resuspended in 100μL of DMEM on Day 0. Anti-PD-1 (Clone RMP1-14, BioXCell, Cat. # BE0146) or mouse IgG2a isotype control (Clone 2A3, BioXCell, Cat. # BE0089) was dosed at 80 µg per mouse intraperitoneally starting on day 12 after tumor implantation, followed by a once-a-week regimen. QPCTL inhibitor was intraperitoneally administered at 25 mg/kg once a day. Tumors were measured daily, and mice were sacrificed 24 days after tumor challenge. Tumor volumes were measured in two dimensions (length and width) and the volume was calculated using the formula, tumor size (mm^3) = (length × width^2) × 0.5.
Briefly, male mice were implanted subcutaneously with 5 x 10^5 B16F10 cells resuspended in 100 μL of DMEM on Day 0. Anti-PD-1 antibody or mouse IgG2a isotype control was dosed at 80 µg per mouse intraperitoneally starting on day 6 after tumor implantation, followed by a once-a-week regimen. QPCTL inhibitors was intraperitoneally administered at 25 mg/kg once a day since day 6. Tumors were measured every three days, and mice were sacrificed on day 15. […]
Tumor challenge with T cell depletion. […] Animal weights and tumor volumes were measured twice weekly throughout the study. […] Data were acquired on flow cytometry analyzer and analyzed using Flowjo software.

Data set [2] has as its system Raji cells. As to the kind of experiment: In vitro phagocytosis of Raji cells by mouse macrophages. In kind it is cell-based, human. As for the experimental part: Eight-week-old C57BL/6 wild-type mice were obtained from Shanghai Slaccas Laboratory Animal Co., Ltd.. To obtain bone marrow derived macrophage (BMDM), femora and tibiae were flushed with ice-cold PBS, and erythrocytes were lysed with RBC lysis buffer. Then bone marrow cells were cultured in DMEM medium with 10 % FBS and 100 U/ mL penicillin, and 100 μg/ mL streptomycin in the presence of 50 ng/ mL mouse M-CSF (Macrophage-Colony Stimulating Factor) (PeproTech), 0.1 mM Sodium pyruvate (Gibco, Cat. # 11360-70) and 10 mM HEPES (Gibco, Cat. # 15630-080) for 7 days.
Phagocytosis assay were conducted as previously described. Briefly, macrophages were plated 1 x 10^5 cells per well in a 48-well plate in complete DMEM medium, supplemented with M-CSF overnight before the experiment. Cancer cells were stained with 5 μM CFSE at 37 °C for 10 min. Each phagocytotic reaction reported in this work was performed by co-culture of target cells and macrophages for 4 hours at 37 °C. Macrophages were identified with APC-labeled anti-F4/80 (Biolegend, Cat. # 123116), and flow cytometry (BD FACSCanto II, San Jose, CA) was performed. Phagocytosis was calculated as the percentage of CFSE^+F4/80^+ cells (Q2) among CFSE^+ cells (Q2+Q3): phagocytosis (%) = [Q2 / (Q2+ Q3)] x100 %.

Data set [3] has as its system pGlu-CD47. As to the kind of experiment: Flow cytometry of pGlu-CD47 (hCD47-CC2C6 binding) in HEK293T cells. The data set is classed as cell-based, human. As for the experimental part: Binding to cell surface CD47 was assessed by staining cells with fluorochrome-labeled antibodies clone CC2C6 (BioLegend, Cat. # 323102) and B6H12 (Abcam, Cat. # ab134485) to human CD47 at a dilution of 1:100 in PBS containing 1% FBS (FACS buffer) for 30 min on ice, while protected from light. SIRPα binding to CD47 was assessed by incubating cells with PE labeled recombinant human SIRPα/ CD172α Protein, Fc tag (ACRO Biosystems, Cat. # SIA-HP252) or PE labeled mouse SIRPα Protein, His tag (ACRO Biosystems, Cat. # SIA-MP2H6) for 1 hour on ice, while protected from light.
(In flow cytometry, cells or beads pass a laser one at a time.)

For data set [4], the system named is Raji and B16F10 cells. As to the kind of experiment: Cell viability (CCK-8) in Raji and B16F10 cells. The following applies: Fig. S5. The data set is classed as cell-based. Here is the method: Raji cells (5000 cells/well), B16F10 cells (3000 cells/well) and BMDM (10000 cells/well) were plated in 96-well and cell viability was examined at the time points shown in the figures, with the help of Cell Counting Kit 8 (CCK-8) (Share-bio, Cat. # B-CCK8) according to the manufacturer’s recommendations.

Usually IC50 stands for the concentration that gives 50% inhibition. For the molecule `Cn1cncc1C1CCN(c2c(C#N)cccc2-c2ccc(F)nc2)CC1` [QP5038], in data set [1], the “enhancement of anti-PD-1 antibody-mediated tumor inhibition under T cell depletion” value was “blocked the enhancement”. The “phagocytosis of Raji cells” value in data set [2] (10 μM inhibitor 48 h, synergized with rituximab, mouse macrophages) is given as “significantly boosted”. In data set [2] (48 h, 10 µM), the “flow cytometry quadrant Q1” value was determined as 26.4, the “flow cytometry quadrant Q2 (CFSE+F4/80+ cells)” value is reported as 2.74, the “flow cytometry quadrant Q3” value was found to be 70.1 and the “flow cytometry quadrant Q4” value was 0.70. Moreover, the “inhibitory effect on CD47 pyroglutamation compared to SEN177 and PQ912” value in data set [3] (100 nM, 48 h) was “superior inhibitory effects”. Further, the IC50 in data set [3] (Homo sapiens, HEK-293T, treatment 48 h, read-out: IC50, dose-dependent inhibition of pGlu-CD47) worked out at 3.3 ± 0.5 nM. In addition, in data set [4], the cell viability entry was “did not markedly impair”.
